In patent US7919623B2, “Naphthyridine derivatives having inhibitory activity against HIV integrase” (Shionogi & Co., Ltd., priority 2004, dated 2011):
Where a name gives a salt, the structure may show the parent alone.

What was measured:
HIV integrase = HIV integrase (Human immunodeficiency virus type 1 group M subtype B, UniProt P04585); test: biochemical
Protocol: The inhibitory activities against integrase were determined by the assay described below. • (1) Preparation of DNA Solutions
Before using the DNA solutions, complementary chains were annealed by slowly cooling after boiling.
Streptavidin, obtained from Vector Laboratories, was dissolved in 0.1 M carbonate buffer (composition: 90 mM Na2CO3, 10 mM NaHCO3) at concentration of 40 μg/ml. After coating each well of immunoplates (obtained from NUNC) with 50 μl of the above solution at 4° C. over night, each well was washed twice with PBS (composition: 13.7 mM NaCl, 0.27 mM KCl, 0.43 mM Na2HPO4, 0.14 mM KH2PO4) and blocked with 300 μl of 1% skim milk in PBS for 30 min. Additionally, each well was washed twice with PBS and added 50 μl of substrate DNA solution (2 pmol/μl). The immunoplates were kept at room temperature for 30 min while shaking. Then, each well was washed twice with PBS and once with the distilled water.
Subsequently, in the each well prepared above were added 51 μl of the reaction solution prepared from 12 μl of the buffer (composition: 150 mM MOPS (pH7.2), 75 mM MnCl2, 50 mM 2-mercaptoethanol, 25% glycerol, 500 μg/ml bovine serum albumin-fraction V), and 39 μl of the distilled water. Then 9 μl of an integrase solution (30 pmol) was added and mixed well. In the well of negative control (NC) was added 9 μl of the integrase dilution buffer (composition: 20 mM MOPS (pH7.2), 400 mM potassium glutamate, 1 mM EDTA, 0.1% NP-40, 20% glycerol, 1 mM DTT, 4M urea), and mixed well using a plate mixer.
The plates were incubated at 30° C. for 60 minutes. The reaction solution was removed and washed three times with 250 μl of washing buffer (composition: 150 mM MOPS (pH7.2), 50 mM 2-mercaptoethanol, 25% glycerol, 500 μg/ml bovine serum albumin-fraction V).
Then each well was added with 53 μl of reaction solution prepared from 12 μl of buffer (composition: 150 mM MOPS (pH7.2), 75 mM MgCl2, 50 mM 2-mercaptoethanol, 25% glycerol, 500 μg/ml bovine serum albumin-fraction V) and 41 μl of distilled water. Further, each well was added with 6 μl of DMSO solution of a compound to be tested, and the well of positive control (PC) was added with 6 μl of DMSO, and mixed well by a plate mixer. After incubating the plate for 30 minutes at 30° C., was added 1 μl of target DNA (5 pmol/μl), and mixed well by a plate mixer.
After incubation for 10 minutes at 30° C., each plate was washed twice with PBS after removal of the reaction solution. Then, 100 μl of ×2000 diluted solution of anti-digoxigenin antibody labeled with alkaline phosphatase (sheep Fab fragment: Boehringer) was added allowed to bind for 1 hour at 30° C., and washed twice with PBS containing 0.05% Tween20 and once with PBS in this sequence. Next, 150 μl of the Alkaline phosphatase coloring buffer (composition: 10 mM p-Nitrophenylphosphate (obtained from Vector Laboratories), 5 mM MgCl2, 100 mM NaCl, 100 mM Tris-HCl (pH 9.5)) was added and allowed to react for 2 hours at 30° C. Then the reaction was terminated by the addition of 50 μl of 1N NaOH solution. The optical density at 405 nm (OD405nm) of each well was measured and the inhibition rate (IC50) was determined by the following expression. The inhibition rate(%)=100[1−{(C abs.−NC abs.)/(PC abs.−NC abs.)}]
C abs.; the OD of the well of the compound
NC abs.: the OD of the negative control (NC)
PC abs.: the OD of the positive control (PC)

Structure (SMILES) | melting point | IC50 (HIV integrase)
COCC=Cc1nc(C(=O)NCCN(C)C)c(O)c2ncc(Cc3ccc(F)cc3)cc12.Cl.O (hydrate or solvate) [Example B-20, 3-(4-fluorobenzyl)-8-hydroxy-5-(3-methoxypropenyl)[1,6]naphthyridine-7-carboxylic acid (2-dimethylaminoethyl)amide hydrochloride monohydrate] | 156 to 158 °C | 
COCCNC(=O)c1nc(C(=O)OC)c2cc(Cc3ccc(F)cc3)cnc2c1O [Example A-1, Methyl 3-(4-fluorobenzyl)-8-hydroxy-7-(2-methoxyethylcarbamoyl) [1,6]naphthyridine-5-carbonate] | 168 to 169 °C | 5.81 nM
COCCNC(=O)c1nc(NC(C)=O)c2cc(Cc3ccc(F)cc3)cnc2c1O [Example A-2, 5-acetylamino-3-(4-fluorobenzyl)-8-hydroxy[1,6]naphthyridine-7-carboxylic acid 2-methoxyethyl amide] | 216 to 217 °C | 46.1 nM
CNC(=O)C(=O)Nc1nc(C(=O)NCCOC)c(O)c2ncc(Cc3ccc(F)cc3)cc12 [Example A-3, N-[3-(4-fluorobenzyl)-8-hydroxy-7-(2-methoxyethylcarbamoyl)[1,6]naphthyridine-5-yl]-N′-methyloxal amide] |  | 41.7 nM
COCCNC(=O)c1nc(C(=O)OCCOC)c2cc(Cc3ccc(F)cc3)cnc2c1O [Example A-5, 3-(4-fluorobenzyl)-8-hydroxy-7-(2-methoxyethylcarbamoyl)[1,6]naphthyridine-5-carboxylic acid 2-methoxyethyl ester] | 139 to 141 °C | 
COCCNC(=O)c1nc(C(=O)OC2CCN(C(C)=O)CC2)c2cc(Cc3ccc(F)cc3)cnc2c1O [Example A-6, 3-(4-fluorobenzyl)-8-hydroxy-7-(2-methoxyethylcarbamoyl)[1,6]naphthyridine-5-carboxylic acid 1-acetylpiperidine-4-yl ester] | 92 to 94 °C | 
CCC(O)CNC(=O)c1nc(NC(=O)COC)c2cc(Cc3ccc(F)cc3)cnc2c1O (centres unmarked) [Example B-1, 3-(4-fluorobenzyl)-8-hydroxy-5-(2-methoxyacetylamino)-[1,6]naphthyridine-7-carboxylic acid (2-hydroxybutyl)amide] |  | 24.1 nM
COCCNC(=O)c1nc(C)c2cc(Cc3ccc(F)cc3)cnc2c1O [Example B-2, 3-(4-fluorobenzyl)-8-hydroxy-5-methyl[1,6]naphthyridine-7-carboxylic acid (2-methoxyethyl)amide] | 167 to 168 °C | 20 nM
COCCNC(=O)c1nc(C(C)O)c2cc(Cc3ccc(F)cc3)cnc2c1O (centres unmarked) [Example B-3, 3-(4-fluorobenzyl)-8-hydroxy-5-(1-hydroxyethyl)[1,6]naphthyridine-7-carboxylic acid (2-methoxyethyl) amide] | 179 °C | 17 nM
COCC=Cc1nc(C(=O)NCCOC)c(O)c2ncc(Cc3ccc(F)cc3)cc12 [Example B-4, 3-(4-fluorobenzyl)-8-hydroxy-5-(3-methoxypropenyl)[1,6]naphthyridine-7-carboxylic acid (2-methoxyethyl)amide] | 125 to 126 °C | 11.3 nM
COCCCNC(=O)c1nc(NC(=O)COC)c2cc(Cc3ccc(F)cc3)cnc2c1O [Example B-5, 3-(4-fluorobenzyl)-8-hydroxy-5-(2-methoxyacetylamino)[1,6]naphthyridine-7-carboxylic acid (3-methoxypropyl) amide] | 159 to 160 °C | 39.4 nM
COCC(=O)Nc1nc(C(=O)NCCN(C(C)C)C(C)C)c(O)c2ncc(Cc3ccc(F)cc3)cc12 [Example B-6, 3-(4-fluorobenzyl)-8-hydroxy-5-(2-methoxyacetylamino)[1,6]naphthyridine-7-carboxylic acid (2-diisopropylaminoethyl)amide] | 69 to 70 °C | 141 nM
COCC(=O)Nc1nc(C(=O)NCCOC(C)C)c(O)c2ncc(Cc3ccc(F)cc3)cc12 [Example B-7, 3-(4-fluorobenzyl)-8-hydroxy-5-(2-methoxyacetylamino)[1,6]naphthyridine-7-carboxylic acid (2-isopropoxyethyl)amide] | 149 to 150 °C | 31.9 nM
COCC(=O)Nc1nc(C(=O)NCCC#N)c(O)c2ncc(Cc3ccc(F)cc3)cc12 [Example B-8, 3-(4-fluorobenzyl)-8-hydroxy-5-(2-methoxyacetylamino)[1,6]naphthyridine-7-carboxylic acid (2-cyanoethyl)amide] | 173 to 175 °C | 27.4 nM
COCC(=O)Nc1nc(C(=O)NCCN(C)C)c(O)c2ncc(Cc3ccc(F)cc3)cc12 [Example B-9, 3-(4-fluorobenzyl)-8-hydroxy-5-(2-methoxyacetylamino)[1,6]naphthyridine-7-carboxylic acid (2-dimethylaminoethyl)amide] |  | 37.3 nM
COCC(=O)Nc1nc(C(=O)NC(C)CO)c(O)c2ncc(Cc3ccc(F)cc3)cc12 (centres unmarked) [Example B-10, 3-(4-fluorobenzyl)-8-hydroxy-5-(2-methoxyacetylamino)[1,6]naphthyridine-7-carboxylic acid (2-hydroxy-1-methylethyl)amide] |  | 49.7 nM

Structure (SMILES) | melting point | IC50 (HIV integrase)
COCC(=O)Nc1nc(C(=O)NC(C)C(=O)OC)c(O)c2ncc(Cc3ccc(F)cc3)cc12 (centres unmarked) [Example B-11, Methyl 2-{[3-(4-fluorobenzyl)-8-hydroxy-5-(2-methoxyacetylamino)[1,6]naphthyridine-7-carbonyl]amino}propionate] | 181 to 182 °C | 51 nM
CCN(CC)CCCNC(=O)c1nc(NC(=O)COC)c2cc(Cc3ccc(F)cc3)cnc2c1O [Example B-12, 3-(4-fluorobenzyl)-8-hydroxy-5-(2-methoxyacetylamino)[1,6]naphthyridine-7-carboxylic acid (3-diethylaminopropyl)amide] |  | 159 nM
COCC(=O)Nc1nc(C(=O)NCCCN(C)C)c(O)c2ncc(Cc3ccc(F)cc3)cc12 [Example B-13, 3-(4-fluorobenzyl)-8-hydroxy-5-(2-methoxyacetylamino)[1,6]naphthyridine-7-carboxylic acid (3-dimethylaminopropyl)amide] |  | 70.3 nM
CCOCCNC(=O)c1nc(NC(=O)COC)c2cc(Cc3ccc(F)cc3)cnc2c1O [Example B-14, 3-(4-fluorobenzyl)-8-hydroxy-5-(2-methoxyacetylamino)[1,6]naphthyridine-7-carboxylic acid (2-ethoxyethyl)amide] | 175 to 177 °C | 48.2 nM
COCC(=O)Nc1nc(C(=O)NCCC(=O)OC)c(O)c2ncc(Cc3ccc(F)cc3)cc12 [Example B-15, Methyl 3-([3-(4-fluorobenzyl)-8-hydroxy-5-(2-methoxyacetylamino)[1,6]naphthyridine-7-carbonyl]amino)propionate] | 168 to 170 °C | 44.6 nM
COCCN(C)C(=O)c1nc(NC(=O)COC)c2cc(Cc3ccc(F)cc3)cnc2c1O [Example B-16, 3-(4-fluorobenzyl)-8-hydroxy-5-(2-methoxyacetylamino)[1,6]naphthyridine-7-carboxylic acid (2-methoxyethyl)methylamide] | 66 to 68 °C | 57 nM
COCC=Cc1nc(C(=O)NCCN(C)C)c(O)c2ncc(Cc3ccc(F)cc3)cc12 [Example B-20, 3-(4-fluorobenzyl)-8-hydroxy-5-(3-methoxypropenyl)[1,6]naphthyridine-7-carboxylic acid (2-dimethylaminoethyl)amide hydrochloride monohydrate] |  | 34.5 nM
CCC(O)CNC(=O)c1nc(C(=O)NC(C)(C)C)c2cc(Cc3ccc(F)cc3)cnc2c1O (centres unmarked) [Example B-21, 3-(4-fluorobenzyl)-8-hydroxy[1,6]naphthyridine-5,7-dicarboxylic acid 5-tert-butylamide 7-[(2-hydroxybutyl)amide]] |  | 17.9 nM
CCC(O)CNC(=O)c1nc(C(=O)NCCOC)c2cc(Cc3ccc(F)cc3)cnc2c1O (centres unmarked) [Example B-22, 3-(4-fluorobenzyl)-8-hydroxy[1,6]naphthyridine-5,7-dicarboxylic acid 7-[(2-hydroxybutyl)amide] 5-[(2-methoxyethyl)amide]] |  | 36.1 nM
CCC(O)CNC(=O)c1nc(C(=O)NCCCN2CCCC2=O)c2cc(Cc3ccc(F)cc3)cnc2c1O (centres unmarked) [Example B-23, 3-(4-fluorobenzyl)-8-hydroxy[1,6]naphthyridine-5,7-dicarboxylic acid 7-[(2-hydroxybutyl)amide]5-{[3-(2-oxopyrrolidine-1-yl)propyl]amide}] |  | 35.3 nM
CCC(O)CNC(=O)c1nc(C(=O)NCC2CCCO2)c2cc(Cc3ccc(F)cc3)cnc2c1O (centres unmarked) [Example B-24, 3-(4-fluorobenzyl)-8-hydroxy[1,6]naphthyridine-5,7-dicarboxylic acid 7-[(2-hydroxybutyl)amide] 5-[(tetrahydrofuran-2-ylmethyl)amide]] |  | 30.2 nM
COCCNC(=O)C(=O)Nc1nc(C(=O)NN(C)C)c(O)c2ncc(Cc3ccc(F)cc3)cc12 [Example B-25, N-[7-(N′,N′-dimethylhydrazinocarbonyl)-3-(4-fluorobenzyl)-8-hydroxy[1,6]naphthyridine-5-yl]-N′-(2-methoxyethyl)oxalamide] | 167 to 169 °C | 
CN(C)NC(=O)c1nc(NC(=O)C(=O)N(C)C)c2cc(Cc3ccc(F)cc3)cnc2c1O [Example B-26, N-[7-(N′,dimethylhydrazinocarbonyl)-3-(4-fluorobenzyl)-8-hydroxy[1,6]naphthyridine-5-yl]-N′,N′-dimethyl oxalamide] | 125 to 128 °C | 
CNC(=O)C(=O)Nc1nc(C(=O)NCCO)c(O)c2ncc(Cc3ccc(F)cc3)cc12 [Example B-27, N-[3-(4-fluorobenzyl)-8-hydroxy-7-(2-hydroxyethylcarbamoyl)[1,6]naphthyridine-5-yl]-N′-methyl oxalamide] | 136 to 137 °C | 
CNC(=O)C(=O)Nc1nc(C(=O)NC(C)CO)c(O)c2ncc(Cc3ccc(F)cc3)cc12 (centres unmarked) [Example B-28, N-[3-(4-fluorobenzyl)-8-hydroxy-7-(2-hydroxy-1-methylethylcarbamoyl)[1,6]naphthyridine-5-yl]-N′-methyl oxalamide] | 131 to 133 °C | 
